Experiments:
Type in all cases: biochemical
[1] = molecular target: PI3Kγ (Homo sapiens (Human), UniProt P48736); test: TR-FRET enzymatic assay of PI3K isoforms (PI3Kγ); conditions: TR-FRET, 2×Km ATP, 2 μM PIP2, PI3Kγ at 2 nM, incubated for 30 minutes at 25° C.; read-out: γ IC50
Experimental: (§1) The compounds of formula (I) were characterized for their enzymatic activity against the PI3K isoforms. Certain compounds of the present application, including certain compounds of formula (II) and (III) were also characterized for their enzymatic activity against PI3K isoforms. The activities were measured using a time-resolved fluorescence resonance energy transfer (TR-FRET) assay.

[2] = molecular target: PI3Kβ (Homo sapiens (Human), UniProt P42338); test: TR-FRET enzymatic assay of PI3K isoforms (PI3Kβ); conditions: TR-FRET, 2×Km ATP, 2 μM PIP2, incubated for 30 minutes at 25° C.; read-out: β IC50
PI3Kβ, sequence (P42338 whole entry, canonical isoform): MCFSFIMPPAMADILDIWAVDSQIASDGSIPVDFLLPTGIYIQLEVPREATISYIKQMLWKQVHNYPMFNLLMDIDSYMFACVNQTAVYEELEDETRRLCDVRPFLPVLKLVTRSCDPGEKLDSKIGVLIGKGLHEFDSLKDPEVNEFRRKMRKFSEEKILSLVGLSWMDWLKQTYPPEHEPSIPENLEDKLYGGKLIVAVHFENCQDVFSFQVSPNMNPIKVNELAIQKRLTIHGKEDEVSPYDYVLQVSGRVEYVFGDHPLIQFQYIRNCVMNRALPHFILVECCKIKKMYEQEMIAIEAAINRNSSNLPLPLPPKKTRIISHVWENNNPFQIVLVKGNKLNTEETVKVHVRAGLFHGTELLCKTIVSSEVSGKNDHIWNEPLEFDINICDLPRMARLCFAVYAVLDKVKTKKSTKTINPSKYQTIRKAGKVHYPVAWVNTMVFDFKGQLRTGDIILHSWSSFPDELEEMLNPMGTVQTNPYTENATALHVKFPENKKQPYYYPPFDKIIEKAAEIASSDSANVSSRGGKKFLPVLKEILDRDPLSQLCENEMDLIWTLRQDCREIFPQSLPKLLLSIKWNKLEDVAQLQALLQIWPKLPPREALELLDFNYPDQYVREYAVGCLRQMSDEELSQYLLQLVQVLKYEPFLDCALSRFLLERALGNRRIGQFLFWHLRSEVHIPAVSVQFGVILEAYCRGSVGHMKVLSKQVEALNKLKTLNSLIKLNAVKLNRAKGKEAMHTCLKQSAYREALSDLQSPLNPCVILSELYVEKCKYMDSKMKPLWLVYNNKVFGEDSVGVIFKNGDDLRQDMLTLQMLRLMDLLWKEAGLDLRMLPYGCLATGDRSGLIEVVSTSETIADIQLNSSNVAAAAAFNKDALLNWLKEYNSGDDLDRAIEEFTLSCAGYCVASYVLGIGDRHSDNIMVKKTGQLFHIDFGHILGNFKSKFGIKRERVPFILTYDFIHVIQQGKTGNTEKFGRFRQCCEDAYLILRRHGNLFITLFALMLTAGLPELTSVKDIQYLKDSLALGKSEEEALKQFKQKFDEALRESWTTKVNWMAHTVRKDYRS
PI3Kβ, sequence (P27986 whole entry partner, canonical isoform): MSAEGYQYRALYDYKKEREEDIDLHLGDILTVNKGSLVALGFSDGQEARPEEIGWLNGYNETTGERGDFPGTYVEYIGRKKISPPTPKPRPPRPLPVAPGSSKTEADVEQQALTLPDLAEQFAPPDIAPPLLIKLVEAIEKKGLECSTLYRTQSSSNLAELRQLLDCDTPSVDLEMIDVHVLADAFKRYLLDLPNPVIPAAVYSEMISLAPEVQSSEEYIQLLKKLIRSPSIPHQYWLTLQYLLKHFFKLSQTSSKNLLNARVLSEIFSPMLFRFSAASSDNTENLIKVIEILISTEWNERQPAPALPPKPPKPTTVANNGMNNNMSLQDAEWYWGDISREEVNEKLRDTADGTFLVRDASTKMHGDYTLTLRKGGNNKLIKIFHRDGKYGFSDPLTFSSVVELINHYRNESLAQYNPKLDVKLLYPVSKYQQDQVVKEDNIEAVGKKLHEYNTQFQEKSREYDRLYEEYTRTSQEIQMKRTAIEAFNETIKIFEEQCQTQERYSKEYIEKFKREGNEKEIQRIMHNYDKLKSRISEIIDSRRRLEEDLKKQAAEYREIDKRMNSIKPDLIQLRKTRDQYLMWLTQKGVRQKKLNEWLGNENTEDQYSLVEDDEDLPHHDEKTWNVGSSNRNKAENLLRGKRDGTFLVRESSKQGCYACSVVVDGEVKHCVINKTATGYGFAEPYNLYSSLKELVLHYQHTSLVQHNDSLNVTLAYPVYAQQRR
Experimental: as §1

[3] = molecular target: PI3Kδ (Homo sapiens (Human), UniProt O00329); test: TR-FRET enzymatic assay of PI3K isoforms (PI3Kδ); conditions: 2×Km ATP, 2 μM PIP2, incubated for 30 minutes at 25° C., read-out: δ IC50
PI3Kδ, sequence (O00329 whole entry, canonical isoform): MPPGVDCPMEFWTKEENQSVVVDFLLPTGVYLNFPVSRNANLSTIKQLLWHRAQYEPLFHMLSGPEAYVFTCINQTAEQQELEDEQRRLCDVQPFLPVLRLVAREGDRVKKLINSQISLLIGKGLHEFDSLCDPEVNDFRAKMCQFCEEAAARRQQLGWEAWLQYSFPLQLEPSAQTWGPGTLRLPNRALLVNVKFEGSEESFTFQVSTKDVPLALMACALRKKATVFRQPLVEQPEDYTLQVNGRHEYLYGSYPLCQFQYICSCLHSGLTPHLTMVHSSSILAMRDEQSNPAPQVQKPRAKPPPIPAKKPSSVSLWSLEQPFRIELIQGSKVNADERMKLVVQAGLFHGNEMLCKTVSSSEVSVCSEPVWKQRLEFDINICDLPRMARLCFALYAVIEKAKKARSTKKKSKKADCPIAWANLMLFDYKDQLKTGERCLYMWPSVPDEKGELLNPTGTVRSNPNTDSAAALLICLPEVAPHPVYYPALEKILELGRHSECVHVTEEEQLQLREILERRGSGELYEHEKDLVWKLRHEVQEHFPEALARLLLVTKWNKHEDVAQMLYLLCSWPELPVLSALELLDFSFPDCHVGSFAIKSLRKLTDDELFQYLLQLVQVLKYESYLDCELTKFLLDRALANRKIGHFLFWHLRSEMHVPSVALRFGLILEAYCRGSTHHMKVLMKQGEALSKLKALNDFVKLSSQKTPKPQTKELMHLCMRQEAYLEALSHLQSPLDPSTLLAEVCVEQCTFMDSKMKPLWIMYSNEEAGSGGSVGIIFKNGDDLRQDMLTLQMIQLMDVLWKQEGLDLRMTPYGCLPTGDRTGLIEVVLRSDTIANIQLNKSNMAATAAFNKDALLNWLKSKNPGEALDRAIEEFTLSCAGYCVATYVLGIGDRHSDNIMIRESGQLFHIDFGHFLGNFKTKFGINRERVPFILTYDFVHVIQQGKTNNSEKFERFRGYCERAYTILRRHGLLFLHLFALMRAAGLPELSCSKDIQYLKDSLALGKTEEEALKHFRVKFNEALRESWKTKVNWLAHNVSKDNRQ
PI3Kδ, sequence (P27986 whole entry partner, canonical isoform): as the sequence (P27986 whole entry partner, canonical isoform) above
Experimental: as §1

PI3Kγ, sequence (P48736 whole entry, canonical isoform): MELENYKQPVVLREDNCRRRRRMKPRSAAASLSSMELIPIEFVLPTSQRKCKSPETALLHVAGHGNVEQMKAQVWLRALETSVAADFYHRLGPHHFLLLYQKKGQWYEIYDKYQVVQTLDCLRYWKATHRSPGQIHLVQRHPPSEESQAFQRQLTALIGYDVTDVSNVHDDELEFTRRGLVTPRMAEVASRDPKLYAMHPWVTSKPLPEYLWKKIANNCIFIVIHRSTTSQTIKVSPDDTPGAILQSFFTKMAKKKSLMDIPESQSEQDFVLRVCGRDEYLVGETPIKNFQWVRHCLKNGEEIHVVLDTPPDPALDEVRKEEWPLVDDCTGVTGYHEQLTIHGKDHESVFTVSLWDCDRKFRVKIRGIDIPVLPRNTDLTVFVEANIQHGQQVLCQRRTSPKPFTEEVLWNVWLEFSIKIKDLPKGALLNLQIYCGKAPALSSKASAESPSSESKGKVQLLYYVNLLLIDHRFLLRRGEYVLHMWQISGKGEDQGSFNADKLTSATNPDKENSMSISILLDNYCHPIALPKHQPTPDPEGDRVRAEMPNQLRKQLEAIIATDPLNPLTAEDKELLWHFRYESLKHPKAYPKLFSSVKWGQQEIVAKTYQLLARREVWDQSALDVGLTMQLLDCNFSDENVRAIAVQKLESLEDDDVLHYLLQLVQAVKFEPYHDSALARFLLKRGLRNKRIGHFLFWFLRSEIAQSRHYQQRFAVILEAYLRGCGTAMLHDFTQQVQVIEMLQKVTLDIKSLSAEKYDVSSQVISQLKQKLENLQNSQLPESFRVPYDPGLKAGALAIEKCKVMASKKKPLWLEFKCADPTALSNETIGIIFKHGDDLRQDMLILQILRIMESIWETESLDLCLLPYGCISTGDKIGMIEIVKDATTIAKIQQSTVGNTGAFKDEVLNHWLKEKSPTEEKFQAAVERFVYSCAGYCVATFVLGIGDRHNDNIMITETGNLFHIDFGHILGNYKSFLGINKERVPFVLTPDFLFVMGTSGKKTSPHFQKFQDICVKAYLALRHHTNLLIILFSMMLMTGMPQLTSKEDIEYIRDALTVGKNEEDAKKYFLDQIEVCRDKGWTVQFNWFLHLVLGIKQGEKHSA
PI3Kγ, sequence (Q8WYR1 whole entry partner, canonical isoform): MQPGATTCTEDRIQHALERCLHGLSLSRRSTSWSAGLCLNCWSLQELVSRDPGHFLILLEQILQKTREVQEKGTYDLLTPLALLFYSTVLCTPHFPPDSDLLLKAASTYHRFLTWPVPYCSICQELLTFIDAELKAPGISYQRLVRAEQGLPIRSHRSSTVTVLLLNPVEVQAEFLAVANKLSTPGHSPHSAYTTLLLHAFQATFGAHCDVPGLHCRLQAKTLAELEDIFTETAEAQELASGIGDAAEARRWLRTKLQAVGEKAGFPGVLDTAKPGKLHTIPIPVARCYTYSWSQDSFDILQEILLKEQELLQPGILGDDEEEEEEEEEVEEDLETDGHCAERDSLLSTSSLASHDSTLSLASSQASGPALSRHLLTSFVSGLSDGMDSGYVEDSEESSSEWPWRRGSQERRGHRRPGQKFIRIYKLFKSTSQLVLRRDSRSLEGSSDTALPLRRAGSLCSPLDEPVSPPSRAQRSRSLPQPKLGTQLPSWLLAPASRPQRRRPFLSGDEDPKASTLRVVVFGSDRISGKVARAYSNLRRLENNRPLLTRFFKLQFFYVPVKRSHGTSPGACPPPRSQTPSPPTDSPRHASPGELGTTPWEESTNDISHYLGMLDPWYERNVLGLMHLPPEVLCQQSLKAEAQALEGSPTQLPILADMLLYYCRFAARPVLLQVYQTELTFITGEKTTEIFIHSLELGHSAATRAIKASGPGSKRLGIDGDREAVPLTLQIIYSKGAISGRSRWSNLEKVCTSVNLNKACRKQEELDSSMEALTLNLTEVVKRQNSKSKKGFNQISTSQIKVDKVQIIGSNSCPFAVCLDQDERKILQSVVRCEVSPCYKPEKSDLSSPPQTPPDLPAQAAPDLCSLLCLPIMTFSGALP

SMILES | IC50 [1] [nM] | IC50 [2] [nM] | IC50 [3] [nM]
N#Cc1c(N)nc(N)nc1N[C@H](c1nc2c(F)ccc(Cl)c2c(=O)n1-c1cccc(C(N)=O)c1)C1CC1 [Compound 15, (S)-3-(5-chloro-2-(cyclopropyl((2,6-diamino-5-cyanopyrimidin-4-yl)amino)methyl)-8-fluoro-4-oxoquinazolin-3(4H)-yl)benzamide] | 330 | 10 | 1
NC(=O)c1cccc(-n2c([C@@H](Nc3nc(N)nc(N)c3Cl)C3CC3)nc3c(F)ccc(Cl)c3c2=O)c1 [Compound 16, (S)-3-(5-chloro-2-(cyclopropyl((2,6-diamino-5-chloropyrimidin-4-yl)amino)methyl)-8-fluoro-4-oxoquinazolin-3(4H)-yl)benzamide] | 3200 | 17 | 2
CC[C@H](Nc1nc(N)nc(N)c1C#N)c1nc2c(Cl)ccc(Cl)c2c(=O)n1-c1cccc(C(N)=O)c1 [Compound 18, (S)-3-(5,8-dichloro-2-(1-((2,6-diamino-5-cyanopyrimidin-4-yl)amino)propyl)-4-oxoquinazolin-3(4H)-yl)benzamide] | 1200 | 8 | 0.5
CC[C@H](Nc1nc(N)nc(N)c1Cl)c1nc2c(Cl)ccc(Cl)c2c(=O)n1-c1cccc(C(N)=O)c1 [Compound 19, (S)-3-(5,8-dichloro-2-(1-((2,6-diamino-5-chloropyrimidin-4-yl)amino)propyl)-4-oxoquinazolin-3(4H)-yl)benzamide] | > 10000 | 28 | 3
CCC[C@H](Nc1nc(N)nc(N)c1Cl)c1nc2c(Cl)ccc(Cl)c2c(=O)n1-c1cccc(C(N)=O)c1 [Compound 21, (S)-3-(5,8-dichloro-2-(1-((2,6-diamino-5-chloropyrimidin-4-yl)amino)butyl)-4-oxoquinazolin-3(4H)-yl)benzamide] | > 10000 | 196 | 19
CCC[C@H](Nc1nc(N)nc(N)c1C#N)c1nc2cccc(Cl)c2c(=O)n1-c1cccc(C(N)=O)c1 [Compound 22, (S)-3-(5-chloro-2-(1-((2,6-diamino-5-cyanopyrimidin-4-yl)amino)butyl)-4-oxoquinazolin-3(4H)-yl)benzamide] | 300 | 7 | 0.7
CCC[C@H](Nc1nc(N)nc(N)c1Cl)c1nc2cccc(Cl)c2c(=O)n1-c1cccc(C(N)=O)c1 [Compound 23, (S)-3-(5-chloro-2-(1-((2,6-diamino-5-chloropyrimidin-4-yl)amino)butyl)-4-oxoquinazolin-3(4H)-yl)benzamide] | 3900 | 12 | 2
C[C@H](Nc1nc(N)nc(C(F)F)c1C#N)c1nc2c(F)ccc(Cl)c2c(=O)n1-c1cccc(C(N)=O)c1 [Compound 24, (S)-3-(2-(1-((2-amino-5-cyano-6-(difluoromethyl)pyrimidin-4-yl)amino)ethyl)-5-chloro-8-fluoro-4-oxoquinazolin-3(4H)-yl)benzamide] | 660 | 25 | 1
C[C@H](Nc1nc(N)nc(C(F)F)c1C#N)c1nc2cccc(Cl)c2c(=O)n1-c1cccc(C(N)=O)c1 [Compound 25, (S)-3-(2-(1-((2-amino-5-cyano-6-(difluoromethyl)pyrimidin-4-yl)amino)ethyl)-5-chloro-4-oxoquinazolin-3(4H)-yl)benzamide] | 700 | 24 | 1
C[C@H](Nc1nc(N)nc(C(F)F)c1C#N)c1nc2c(Cl)cc(F)cc2c(=O)n1-c1cccc(C(N)=O)c1 [Compound 26, (S)-3-(2-(1-((2-amino-5-cyano-6-(difluoromethyl)pyrimidin-4-yl)amino)ethyl)-8-chloro-6-fluoro-4-oxoquinazolin-3(4H)-yl)benzamide] | 7200 | 313 | 12
NC(=O)c1cccc(-n2c([C@@H](Nc3nc(N)nc(N)c3Cl)C3CC3)nc3c(Cl)cc(F)cc3c2=O)c1 [Compound 28, (S)-3-(8-chloro-2-(cyclopropyl((2,6-diamino-5-chloropyrimidin-4-yl)amino)methyl)-6-fluoro-4-oxoquinazolin-3(4H)-yl)benzamide] | > 10000 | 267 | 46
C[C@H](Nc1nc(N)nc(N)c1Cl)c1nc2c(Cl)cc(F)cc2c(=O)n1-c1cccc(C(N)=O)c1 [Compound 30, (S)-3-(8-chloro-2-(1-((2,6-diamino-5-chloropyrimidin-4-yl)amino)ethyl)-6-fluoro-4-oxoquinazolin-3(4H)-yl)benzamide] | > 10000 | 252 | 22
C[C@H](Nc1nc(N)nc(N)c1C#N)c1nc2c(C#N)cc(F)cc2c(=O)n1-c1cccc(C(N)=O)c1 [Compound 31, (S)-3-(8-cyano-2-(1-((2,6-diamino-5-cyanopyrimidin-4-yl)amino)ethyl)-6-fluoro-4-oxoquinazolin-3(4H)-yl)benzamide] | 1100 | 21 | 2
N#Cc1c(N)nc(N)nc1N[C@H](c1nc2c(C#N)cc(F)cc2c(=O)n1-c1cccc(C(N)=O)c1)C1CC1 [Compound 32, (S)-3-(8-cyano-2-(cyclopropyl((2,6-diamino-5-cyanopyrimidin-4-yl)amino)methyl)-6-fluoro-4-oxoquinazolin-3(4H)-yl)benzamide] | 1800 | 25 | 4
CC[C@H](Nc1nc(N)nc(N)c1C#N)c1nc2cccc(C(F)F)c2c(=O)n1-c1cccc(C(N)=O)c1 [Compound 33, (S)-3-(2-(1-((2,6-diamino-5-cyanopyrimidin-4-yl)amino)propyl)-5-(difluoromethyl)-4-oxoquinazolin-3(4H)-yl)benzamide] | 380 | 4 | 0.8
CC[C@H](Nc1nc(N)nc(N)c1Cl)c1nc2cccc(C(F)F)c2c(=O)n1-c1cccc(C(N)=O)c1 [Compound 34, (S)-3-(2-(1-((2,6-diamino-5-chloropyrimidin-4-yl)amino)propyl)-5-(difluoromethyl)-4-oxoquinazolin-3(4H)-yl)benzamide] | 5000 | 22 | 3
N#Cc1c(N)nc(N)nc1N[C@H](c1nc2cccc(C(F)F)c2c(=O)n1-c1cccc(C(N)=O)c1)C1CC1 [Compound 35, (S)-3-(2-(cyclopropyl((2,6-diamino-5-cyanopyrimidin-4-yl)amino)methyl)-5-(difluoromethyl)-4-oxoquinazolin-3(4H)-yl)benzamide] | 200 | 5 | 1
C[C@H](Nc1nc(N)nc(N)c1Cl)c1nc2c(C#N)cccc2c(=O)n1-c1cccc(C(N)=O)c1 [Compound 36, (S)-3-(8-cyano-2-(1-((2,6-diamino-5-chloropyrimidin-4-yl)amino)ethyl)-4-oxoquinazolin-3(4H)-yl)benzamide] | > 10000 | 299 | 10
C[C@H](Nc1ncnc(N)c1C#Cc1cnccn1)c1nc2cccc(Cl)c2c(=O)n1-c1cccc(C(N)=O)c1 [Compound 37, (S)-3-(2-(1-((6-amino-5-(pyrazin-2-ylethynyl)pyrimidin-4-yl)amino)ethyl)-5-chloro-4-oxoquinazolin-3(4H)-yl)benzamide] | > 10000 | 243 | 7
C[C@H](Nc1ncnc(N)c1C#Cc1ccccn1)c1nc2cccc(Cl)c2c(=O)n1-c1cccc(C(N)=O)c1 [Compound 38, (S)-3-(2-(1-((6-amino-5-(pyridin-2-ylethynyl)pyrimidin-4-yl)amino)ethyl)-5-chloro-4-oxoquinazolin-3(4H)-yl)benzamide] | 1500 | 52 | 1
CCNC(=O)Nc1cccc(-n2c([C@@H](Nc3ncnc(N)c3[N+](=O)[O-])[C@@H](C)CC)nc3cccc(Cl)c3c2=O)c1 [Compound 43, 1-(3-(2-((1S,2S)-1-((6-amino-5-nitropyrimidin-4-yl)amino)-2-methylbutyl)-5-chloro-4-oxoquinazolin-3(4H)-yl)phenyl)-3-ethylurea] | > 10000 | 18 | 13
CCNC(=O)Nc1cccc(-n2c([C@H](C)Nc3ncnc(N)c3C#N)nc3cccc(Br)c3c2=O)c1 [Compound 45, (S)-1-(3-(2-(1-((6-amino-5-cyanopyrimidin-4-yl)amino)ethyl)-5-bromo-4-oxoquinazolin-3(4H)-yl)phenyl)-3-ethylurea] | 1800 | 6 | 2
C=CCc1cccc2nc([C@H](C)Nc3ncnc(N)c3C#N)n(-c3cccc(NC(=O)NCC)c3)c(=O)c12 [Compound 46, (S)-1-(3-(5-allyl-2-(1-((6-amino-5-cyanopyrimidin-4-yl)amino)ethyl)-4-oxoquinazolin-3(4H)-yl)phenyl)-3-ethylurea] | > 10000 | 35 | 17
CCNC(=O)Nc1cccc(-n2c([C@H](C)Nc3ncnc(N)c3C#N)nc3cccc(F)c3c2=O)c1 [Compound 47, (S)-1-(3-(2-(1-((6-amino-5-cyanopyrimidin-4-yl)amino)ethyl)-5-fluoro-4-oxoquinazolin-3(4H)-yl)phenyl)-3-ethylurea] | > 10000 | 36 | 26
CCNC(=O)Nc1cccc(-n2c([C@H](C)Nc3ncnc(N)c3C#N)nc3c(Cl)ccc(Cl)c3c2=O)c1 [Compound 48, (S)-1-(3-(2-(1-((6-amino-5-cyanopyrimidin-4-yl)amino)ethyl)-5,8-dichloro-4-oxoquinazolin-3(4H)-yl)phenyl)-3-ethylurea] | > 10000 | 7 | 3
